Experimental data reported in patent US11564955B2, “Composition including, as active ingredient, strain having ability to produce formic acid for preventing or treating obesity or metabolic syndromes caused by obesity” (KOREA FOOD RESEARCH INSTITUTE, priority 2016, dated 2023).

System: high-fat diet-induced obesity animal models
Conditions: oral formate vs high-fat diet control group
From the text: In order to investigate whether formic acid actually has an anti-obesity effect, the present inventors orally administered formate into high-fat diet-induced obesity animal models. […] The patent application procedure of the above-described contents is under way, separately from the present disclosure.

## O=CO [formate]
  blood cholesterol content: significantly reduced
  blood triglyceride content: significantly reduced
  body weight increase: inhibited
  fat cell size: decreased
  kidney fat weight value: lowered
